Experimental data from the Kinase Knowledgebase extract (Sharma et al. 2016).

Columns and labels:
[1] = molecular target: CDK2 (human) (UniProt P24941); experiment: Cell-Based Assay
[2] = molecular target: EGFR (human) (UniProt P00533)
[3] = molecular target: CDK2 (human) (UniProt P24941); experiment: Enzyme Assay

EGFR (human), sequence (P00533 whole entry, looked up): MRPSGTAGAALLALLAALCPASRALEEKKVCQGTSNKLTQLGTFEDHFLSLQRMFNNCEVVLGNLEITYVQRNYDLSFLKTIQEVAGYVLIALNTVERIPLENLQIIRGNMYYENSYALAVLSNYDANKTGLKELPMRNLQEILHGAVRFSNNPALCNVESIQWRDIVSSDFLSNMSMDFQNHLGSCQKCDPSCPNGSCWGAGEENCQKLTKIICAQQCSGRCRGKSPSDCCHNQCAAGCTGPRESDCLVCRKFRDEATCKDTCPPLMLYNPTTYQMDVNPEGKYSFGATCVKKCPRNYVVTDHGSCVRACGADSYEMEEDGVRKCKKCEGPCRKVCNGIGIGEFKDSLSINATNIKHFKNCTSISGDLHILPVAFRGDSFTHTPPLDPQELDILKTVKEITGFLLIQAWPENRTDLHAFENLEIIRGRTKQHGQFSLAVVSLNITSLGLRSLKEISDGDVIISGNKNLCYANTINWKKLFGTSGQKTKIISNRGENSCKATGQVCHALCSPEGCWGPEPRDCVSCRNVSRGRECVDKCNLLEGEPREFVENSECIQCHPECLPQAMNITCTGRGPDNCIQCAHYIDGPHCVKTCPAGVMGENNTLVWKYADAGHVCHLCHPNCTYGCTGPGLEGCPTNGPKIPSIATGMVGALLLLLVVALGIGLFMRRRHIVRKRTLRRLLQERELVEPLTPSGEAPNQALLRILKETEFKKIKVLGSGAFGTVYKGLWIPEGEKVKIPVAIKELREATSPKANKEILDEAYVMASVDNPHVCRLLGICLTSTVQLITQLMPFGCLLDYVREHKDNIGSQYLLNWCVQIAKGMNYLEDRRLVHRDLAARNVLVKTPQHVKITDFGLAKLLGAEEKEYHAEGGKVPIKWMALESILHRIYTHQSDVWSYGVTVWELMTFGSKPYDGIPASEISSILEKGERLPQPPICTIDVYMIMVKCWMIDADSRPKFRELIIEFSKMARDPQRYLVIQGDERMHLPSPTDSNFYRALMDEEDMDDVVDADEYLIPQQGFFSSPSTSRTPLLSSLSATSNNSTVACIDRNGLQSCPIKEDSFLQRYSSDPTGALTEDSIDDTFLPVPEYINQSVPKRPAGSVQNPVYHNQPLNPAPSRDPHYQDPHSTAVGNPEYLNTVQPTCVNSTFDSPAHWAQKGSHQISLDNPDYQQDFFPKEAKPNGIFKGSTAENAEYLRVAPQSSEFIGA

| Structure (SMILES) | GI50 ([1]; a431) [µM] | GI50 ([1]; hct 116) [µM] | IC50 [2] [µM] | IC50 [3] [µM] |
| --- | --- | --- | --- | --- |
| Cc1nc(NN2C(=O)C(=Cc3cccs3)SC2=S)nc(-c2ccc(O)cc2O)c1C(=O)Nc1cccc([N+](=O)[O-])c1 | 2.78 | 4.5 | 80.6 | 0.3 |
| CC1=CN(c2nc(C)c(C(=O)Nc3cccc([N+](=O)[O-])c3)c(-c3ccc(O)cc3O)n2)C(=O)C1=Cc1cccs1 | 37.1 | 26.5 | > 100 | 3.1 |
| Cc1nc(NN2C(=O)C(=Cc3ccccc3)SC2=S)nc(-c2ccc(O)cc2O)c1C(=O)Nc1cccc([N+](=O)[O-])c1 | 24.3 | 16.6 | > 100 | 28.2 |
| Clc1cccc(Nc2ncnc3cc4c(cc23)OCCO4)c1 |  |  | 0.0008 |  |
| Cc1nc(NN)nc(-c2ccc(O)cc2O)c1C(=O)Nc1cccc([N+](=O)[O-])c1 | 24.3 | 47.7 | 47.9 | > 100 |
| Cc1nc(NN=Cc2cccs2)nc(-c2ccc(O)cc2O)c1C(=O)Nc1cccc([N+](=O)[O-])c1 | 19.1 | 38.2 | > 100 | 22.9 |
| CC1=C(C(=O)Nc2cccc([N+](=O)[O-])c2)C(c2ccc(O)cc2O)NC(SCc2ccccc2)=N1 (stereo not given) | > 100 |  |  |  |
| CC1=CN(c2nc(C)c(C(=O)Nc3cccc([N+](=O)[O-])c3)c(-c3ccc(O)cc3O)n2)C(=O)C1=Cc1ccco1 | 15.8 | > 100 | > 100 | 10.3 |
| Cc1nc(NN2C(=O)C(=Cc3ccco3)SC2=S)nc(-c2ccc(O)cc2O)c1C(=O)Nc1cccc([N+](=O)[O-])c1 | 28.9 | > 100 | 99.3 | 0.4 |
| CC1=C(C(=O)Nc2cccc([N+](=O)[O-])c2)C(c2ccc(O)cc2O)NC(NCc2ccccc2)=N1 (stereo not given) |  | > 100 |  |  |
| Cc1nc(NN=Cc2ccco2)nc(-c2ccc(O)cc2O)c1C(=O)Nc1cccc([N+](=O)[O-])c1 | 2.91 | 8.89 | > 100 | 3.8 |
